Patent US20100137449A1, “SUBSTITUTED 1,3-CYCLOPENTADIONE MULTI-TARGET PROTEIN KINASE MODULATORS OF CANCER, ANGIOGENESIS AND THE INFLAMMATORY PATHWAYS ASSOCIATED THEREWITH” (METAPROTEOMICS, LLC, priority 2007, published 2010)

Tests used:
Assay in all cases: KinaseProfiler Assay
[1] = molecular target: T1, ARK5(h) (Homo sapiens, UniProt O60285)
T1 sequence (O60285 1-661): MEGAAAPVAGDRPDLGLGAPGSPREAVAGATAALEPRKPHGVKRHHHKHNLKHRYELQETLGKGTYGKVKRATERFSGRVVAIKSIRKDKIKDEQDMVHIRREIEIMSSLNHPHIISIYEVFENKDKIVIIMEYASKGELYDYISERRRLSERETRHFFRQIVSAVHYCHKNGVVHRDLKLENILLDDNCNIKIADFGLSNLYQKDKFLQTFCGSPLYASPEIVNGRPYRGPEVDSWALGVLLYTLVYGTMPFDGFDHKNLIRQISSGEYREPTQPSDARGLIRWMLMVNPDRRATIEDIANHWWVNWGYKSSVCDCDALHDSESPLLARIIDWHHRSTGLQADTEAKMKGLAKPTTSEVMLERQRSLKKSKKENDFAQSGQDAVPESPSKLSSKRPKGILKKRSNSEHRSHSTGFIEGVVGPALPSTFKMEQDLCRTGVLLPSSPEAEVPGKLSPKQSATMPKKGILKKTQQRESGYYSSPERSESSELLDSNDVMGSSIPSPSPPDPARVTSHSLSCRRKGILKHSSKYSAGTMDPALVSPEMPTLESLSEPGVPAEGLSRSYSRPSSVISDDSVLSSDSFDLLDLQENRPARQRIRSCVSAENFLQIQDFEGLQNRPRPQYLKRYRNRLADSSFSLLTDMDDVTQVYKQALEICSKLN

[2] = molecular target: T2, BrSK2(h) (Homo sapiens, UniProt Q8IWQ3)
T2 sequence (Q8IWQ3 1-736): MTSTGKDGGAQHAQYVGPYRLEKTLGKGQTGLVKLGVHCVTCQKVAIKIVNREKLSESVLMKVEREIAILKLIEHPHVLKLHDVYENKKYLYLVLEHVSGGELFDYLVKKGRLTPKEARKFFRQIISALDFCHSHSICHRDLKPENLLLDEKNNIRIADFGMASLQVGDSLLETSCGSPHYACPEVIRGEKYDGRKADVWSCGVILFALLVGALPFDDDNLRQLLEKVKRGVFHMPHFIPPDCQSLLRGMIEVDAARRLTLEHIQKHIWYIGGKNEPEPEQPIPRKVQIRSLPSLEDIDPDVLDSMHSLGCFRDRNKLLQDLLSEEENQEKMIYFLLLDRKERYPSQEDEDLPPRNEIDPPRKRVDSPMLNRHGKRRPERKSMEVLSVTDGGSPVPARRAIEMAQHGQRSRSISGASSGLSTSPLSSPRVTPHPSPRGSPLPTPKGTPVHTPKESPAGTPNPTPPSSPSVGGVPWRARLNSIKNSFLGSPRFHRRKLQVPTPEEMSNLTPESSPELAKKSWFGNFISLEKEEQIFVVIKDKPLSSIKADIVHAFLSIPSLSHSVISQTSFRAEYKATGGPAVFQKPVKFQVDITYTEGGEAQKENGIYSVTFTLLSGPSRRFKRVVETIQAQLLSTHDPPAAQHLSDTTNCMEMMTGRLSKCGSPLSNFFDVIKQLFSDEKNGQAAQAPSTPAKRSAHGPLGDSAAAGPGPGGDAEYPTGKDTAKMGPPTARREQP

[3] = molecular target: EGFR(L858R)(h) (Homo sapiens, UniProt P00533, L858R)
[4] = molecular target: MAPKAP-K2(h) (Homo sapiens, UniProt P49137)
[5] = molecular target: T3, NEK2(h) (Homo sapiens, UniProt P51955)
T3 sequence (P51955 1-445): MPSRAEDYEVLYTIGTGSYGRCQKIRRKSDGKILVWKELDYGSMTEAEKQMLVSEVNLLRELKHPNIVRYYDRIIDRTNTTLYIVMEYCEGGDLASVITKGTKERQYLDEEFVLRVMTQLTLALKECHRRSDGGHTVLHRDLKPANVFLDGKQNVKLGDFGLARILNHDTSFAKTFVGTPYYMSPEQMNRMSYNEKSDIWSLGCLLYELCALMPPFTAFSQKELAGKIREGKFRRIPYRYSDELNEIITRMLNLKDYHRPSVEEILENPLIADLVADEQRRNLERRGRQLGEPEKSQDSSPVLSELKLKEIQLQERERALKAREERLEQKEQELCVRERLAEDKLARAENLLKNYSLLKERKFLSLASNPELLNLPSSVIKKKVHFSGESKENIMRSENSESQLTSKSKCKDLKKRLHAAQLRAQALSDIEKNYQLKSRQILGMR

EGFR(L858R)(h), sequence (P00533 25-1210 L858R): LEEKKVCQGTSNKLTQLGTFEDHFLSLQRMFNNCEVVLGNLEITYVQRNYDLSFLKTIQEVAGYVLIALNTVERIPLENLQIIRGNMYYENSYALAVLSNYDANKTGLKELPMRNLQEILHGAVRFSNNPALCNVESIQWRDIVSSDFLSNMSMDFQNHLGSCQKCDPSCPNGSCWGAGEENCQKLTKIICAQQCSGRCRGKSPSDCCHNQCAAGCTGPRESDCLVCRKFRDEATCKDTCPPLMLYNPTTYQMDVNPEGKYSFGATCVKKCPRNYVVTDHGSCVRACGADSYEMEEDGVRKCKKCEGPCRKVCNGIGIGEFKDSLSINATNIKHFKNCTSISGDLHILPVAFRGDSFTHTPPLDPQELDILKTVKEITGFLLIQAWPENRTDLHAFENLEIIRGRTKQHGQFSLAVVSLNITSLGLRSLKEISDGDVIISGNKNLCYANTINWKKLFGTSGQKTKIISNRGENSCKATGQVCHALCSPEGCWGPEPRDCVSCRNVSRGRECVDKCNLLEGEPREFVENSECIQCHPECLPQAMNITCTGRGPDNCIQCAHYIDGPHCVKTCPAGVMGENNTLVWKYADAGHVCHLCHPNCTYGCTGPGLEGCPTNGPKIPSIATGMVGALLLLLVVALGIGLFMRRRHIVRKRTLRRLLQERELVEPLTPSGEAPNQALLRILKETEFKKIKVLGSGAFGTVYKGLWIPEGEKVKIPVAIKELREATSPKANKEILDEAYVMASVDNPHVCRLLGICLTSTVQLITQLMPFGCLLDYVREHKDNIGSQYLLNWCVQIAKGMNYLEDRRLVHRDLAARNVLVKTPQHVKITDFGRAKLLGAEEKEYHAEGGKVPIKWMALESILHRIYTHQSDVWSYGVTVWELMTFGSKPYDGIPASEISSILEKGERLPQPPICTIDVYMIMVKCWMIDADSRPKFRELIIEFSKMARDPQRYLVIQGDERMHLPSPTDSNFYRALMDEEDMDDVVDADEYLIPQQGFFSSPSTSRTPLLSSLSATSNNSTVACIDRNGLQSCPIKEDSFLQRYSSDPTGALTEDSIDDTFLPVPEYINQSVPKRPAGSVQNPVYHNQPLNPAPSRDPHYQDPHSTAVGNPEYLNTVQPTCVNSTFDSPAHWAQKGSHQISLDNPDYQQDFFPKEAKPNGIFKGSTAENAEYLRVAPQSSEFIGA
MAPKAP-K2(h), sequence (P49137 whole entry): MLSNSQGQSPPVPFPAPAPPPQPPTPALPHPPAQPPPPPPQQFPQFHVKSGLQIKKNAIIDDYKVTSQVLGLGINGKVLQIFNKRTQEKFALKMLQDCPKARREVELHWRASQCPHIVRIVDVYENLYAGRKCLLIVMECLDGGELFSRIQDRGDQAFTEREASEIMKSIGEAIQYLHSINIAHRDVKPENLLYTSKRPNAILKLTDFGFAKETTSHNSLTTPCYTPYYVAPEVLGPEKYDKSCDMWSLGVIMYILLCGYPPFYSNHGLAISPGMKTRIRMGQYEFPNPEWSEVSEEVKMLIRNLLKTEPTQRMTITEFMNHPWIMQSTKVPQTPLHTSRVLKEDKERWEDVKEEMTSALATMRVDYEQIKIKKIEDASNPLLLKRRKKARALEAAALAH

In the case of `CC(C)CCC(=O)[C@]1(O)C(O)=C(C(=O)C(C)C)C(=O)[C@H]1CCC(C)C` [TH2, tetrahydroiso-cohumulone], the kinase inhibition ([1]; 1 μg/ml) is reported as 103% of control, the kinase inhibition ([1]; 5 μg/ml) is reported as 104% of control and the kinase inhibition ([1]; 25 μg/ml) is reported as 99% of control. The kinase inhibition ([1]; 50 μg/ml) was 77% of control, the kinase inhibition ([1]; 100 μg/ml) was 74% of control and the kinase inhibition ([2]; 1 μg/ml) was 99% of control. For the same compound, the kinase inhibition ([2]; 5 μg/ml) was 90% of control, the kinase inhibition ([2]; 25 μg/ml) was 84% of control and the kinase inhibition ([2]; 50 μg/ml) was 83% of control. For the same compound, the kinase inhibition ([2]; 100 μg/ml) was 72% of control, the kinase inhibition ([3]; 1 μg/ml) was 109% of control and the kinase inhibition ([3]; 5 μg/ml) was 117% of control. For the same compound, the kinase inhibition ([3]; 25 μg/ml) was 104% of control, the kinase inhibition ([3]; 50 μg/ml) was 90% of control and the kinase inhibition ([3]; 100 μg/ml) was 70% of control. For the same compound, the kinase inhibition ([4]; 1 μg/ml) was 116% of control, the kinase inhibition ([4]; 5 μg/ml) was 104% of control and the kinase inhibition ([4]; 25 μg/ml) was 104% of control. For the same compound, the kinase inhibition ([4]; 50 μg/ml) was 74% of control, the kinase inhibition ([4]; 100 μg/ml) was 73% of control and the kinase inhibition ([5]; 1 μg/ml) was 106% of control. The kinase inhibition ([5]; 5 μg/ml) was 109% of control, the kinase inhibition ([5]; 25 μg/ml) was 105% of control and the kinase inhibition ([5]; 50 μg/ml) was 102% of control. The kinase inhibition ([5]; 100 μg/ml) was 72% of control.
